Test results from US11173192B2 (priority 2016, dated 2021).

Assays:
VSV = assay type: cell-based, vesicular stomatitis virus (VSV)
[1] = test system: VSV-infected RAW264.7 cells; assay type: cell-based

Question: How did the “viral replication following infection with VSV” value (VSV) turn out when “EPRS: glutamyl-prolyl-tRNA synthetase protein, 1512 aa, SEQ ID NO: 63; expressed from plasmid or purified” was run?
Answer: significantly less viral replication

Question: And the “IFN-β production following infection with VSV” value [1]?
Answer: more production of IFN-β and IL-6

Question: What about the “IL-6 production following infection with VSV” value [1] of the same substance?
Answer: more production of IFN-β and IL-6
